Legend:
[1] = system: panel of 60 tumour cell lines; experiment: NCI 60 cell line antiproliferative screening (SRB), whole panel or subpanels (means, ranges, words); format: cell-based, human
[2] = system: SK-OV-3; experiment: cells; format: cell-based
[3] = system: CCRF-CEM; experiment: cells; format: cell-based
[4] = system: SF-295; experiment: cells; format: cell-based
[5] = system: BT-549; experiment: cells; format: cell-based
[6] = system: UACC-62; experiment: cells; format: cell-based
[7] = system: HS 578T; experiment: cells; format: cell-based
[8] = system: COLO-205; experiment: cells; format: cell-based
[9] = system: PC-3; experiment: cells; format: cell-based
[10] = system: T-47D; experiment: cells; format: cell-based
[11] = system: OVCAR-8; experiment: cells; format: cell-based
[12] = system: EKVX; experiment: cells; format: cell-based
[13] = system: HOP-92; experiment: cells; format: cell-based
[14] = system: MCF7; experiment: cells; format: cell-based
[15] = system: IGROV1; experiment: cells; format: cell-based
[16] = system: OVCAR-4; experiment: cells; format: cell-based
[17] = system: UO-31; experiment: cells; format: cell-based
[18] = system: HT29; experiment: cells; format: cell-based
[19] = system: MOLT-4; experiment: cells; format: cell-based
[20] = system: MDA-MB-435; experiment: cells; format: cell-based
[21] = system: SNB-75; experiment: cells; format: cell-based
[22] = system: OVCAR-3; experiment: NCI 60 cell line antiproliferative screening (SRB), Ovarian cancer
[23] = system: NCI-H522; experiment: cells; format: cell-based
[24] = system: SF-539; experiment: cells; format: cell-based; settings: Homo sapiens
[25] = Homo sapiens, read-out: growth inhibition % (GI%)

O=C(CSc1nc2ccccc2c(=O)n1-c1ccc(Cl)cc1)NN=Cc1ccc(Oc2ccc(Cl)cc2)cc1 [6d, N'-(4–(4-chlorophenoxy)benzylidene)-2-((3–(4-chlorophenyl)-4-oxo-3,4-dihydroquinazolin-2-yl)thio)acetohydrazide]
GI50 ([1]; Homo sapiens, 60 cell, read-out: GI50 range against most of the tested cancer cell lines): 1.29 to 5.97 µM
inhibition at 10 µM ([1]; Homo sapiens, 60 cell, read-out: Mean growth inhibition % (mean GI%)): 80.2%
TGI range against the rest of cell lines ([1]; five dose concentrations, good to moderate cytostatic activity): 11.1 to 48.5 µM
TGI range against 40 cancer cell lines ([1]; five dose concentrations, high cytostatic activity): 2.59 to 9.55 µM
GI50 ([2]; Homo sapiens, SK-OV-3): 3.26 µM
inhibition at 10 µM ([2]; Homo sapiens, SK-OV-3, read-out: growth inhibition % (GI%)): 66.2%
CC50 ([2]; Homo sapiens, SK-OV-3, 5 doses, read-out: LC50 (the source's name)): 49.4 µM
TGI ([2]; SK-OV-3, 5 doses): 11.9 µM
TGI ([3]; 5 doses): 48.5 µM
GI50 ([3]; Homo sapiens): 3.09 µM
CC50 ([3]; Homo sapiens, 5 doses, read-out: LC50 (the source's name)): > 100 µM
inhibition at 10 µM [3, 25]: > 100%
GI50 ([4]; Homo sapiens, SF-295): 3.61 µM
inhibition at 10 µM ([4]; Homo sapiens, SF-295, read-out: growth inhibition % (GI%)): 35.3%
CC50 ([4]; Homo sapiens, SF-295, 5 doses, read-out: LC50 (the source's name)): 36.4 µM
TGI ([4]; SF-295, 5 doses): 13.3 µM
TGI ([5]; BT-549, 5 doses): 12.2 µM
GI50 ([5]; Homo sapiens, BT-549): 3.28 µM
inhibition at 10 µM ([5]; Homo sapiens, BT-549, read-out: growth inhibition % (GI%)): > 100%
CC50 ([5]; Homo sapiens, BT-549, 5 doses, read-out: LC50 (the source's name)): 36.2 µM
GI50 ([6]; Homo sapiens, UACC-62): 1.59 µM
inhibition at 10 µM ([6]; Homo sapiens, UACC-62, read-out: growth inhibition % (GI%)): 99.6%
CC50 ([6]; Homo sapiens, UACC-62, 5 doses, read-out: LC50 (the source's name)): 6.38 µM
TGI ([6]; UACC-62, 5 doses): 3.18 µM
TGI ([7]; HS 578T, 5 doses): 6.36 µM
GI50 ([7]; Homo sapiens, Hs-578T): 2.17 µM
inhibition at 10 µM ([7]; Homo sapiens, Hs-578T, read-out: growth inhibition % (GI%)): 78.6%
CC50 ([7]; Homo sapiens, HS 578T, 5 doses, read-out: LC50 (the source's name)): > 100 µM
TGI ([8]; COLO 205, 5 doses): 8.74 µM
GI50 ([8]; Homo sapiens, COLO 205): 2.79 µM
inhibition at 10 µM ([8]; Homo sapiens, COLO 205, read-out: growth inhibition % (GI%)): 85.4%
LC50 ([8]; Homo sapiens, COLO 205, 5 doses): 91.6 µM
GI50 ([9]; Homo sapiens, PC-3): 2.58 µM
inhibition at 10 µM ([9]; Homo sapiens, PC-3, read-out: growth inhibition % (GI%)): 99.2%
CC50 ([9]; Homo sapiens, PC-3, 5 doses, read-out: LC50 (the source's name)): > 100 µM
TGI ([9]; PC-3, 5 doses): 9.32 µM
GI50 ([10]; Homo sapiens, T47D): 2.09 µM
inhibition at 10 µM ([10]; Homo sapiens, T47D, read-out: growth inhibition % (GI%)): 69.9%
CC50 ([10]; Homo sapiens, T47D, T-47D, 5 doses, read-out: LC50 (the source's name)): 49.5 µM
TGI ([10]; T-47D, 5 doses): 5.76 µM
GI50 ([11]; Homo sapiens, OVCAR-8): 2.41 µM
inhibition at 10 µM ([11]; Homo sapiens, OVCAR-8, read-out: growth inhibition % (GI%)): 86.6%
CC50 ([11]; Homo sapiens, OVCAR-8, 5 doses, read-out: LC50 (the source's name)): > 100 µM
TGI ([11]; OVCAR-8, 5 doses): 6.56 µM
TGI ([12]; 5 doses): 13.9 µM
GI50 ([12]; Homo sapiens): 3.1 µM
LC50 ([12]; Homo sapiens, 5 doses): 63.6 µM
inhibition at 10 µM [12, 25]: 59.2%
TGI ([13]; HOP-92, 5 doses): 5.62 µM
GI50 ([13]; Homo sapiens, HOP-92): 2.07 µM
inhibition at 10 µM ([13]; Homo sapiens, HOP-92, read-out: growth inhibition % (GI%)): 97.4%
LC50 (concentration killing 50% of cells) ([13]; Homo sapiens, HOP-92, 5 doses): 22.8 µM
GI50 ([14]; Homo sapiens, MCF7): 2.01 µM
inhibition at 10 µM ([14]; Homo sapiens, MCF7, read-out: growth inhibition % (GI%)): 84.5%
CC50 ([14]; Homo sapiens, MCF7, 5 doses, read-out: LC50 (the source's name)): 25.6 µM
TGI ([14]; MCF7, 5 doses): 5.5 µM
GI50 ([15]; Homo sapiens, IGROV-1): 1.51 µM
inhibition at 10 µM ([15]; Homo sapiens, IGROV-1, read-out: growth inhibition % (GI%)): 79.4%
CC50 ([15]; Homo sapiens, IGROV-1, IGROV1, 5 doses, read-out: LC50 (the source's name)): 7.12 µM
TGI ([15]; IGROV1, 5 doses): 3.28 µM
GI50 ([16]; Homo sapiens, OVCAR-4): 1.89 µM
inhibition at 10 µM ([16]; Homo sapiens, OVCAR-4, read-out: growth inhibition % (GI%)): 98.3%
CC50 ([16]; Homo sapiens, OVCAR-4, 5 doses, read-out: LC50 (the source's name)): 17.5 µM
TGI ([16]; OVCAR-4, 5 doses): 4.57 µM
GI50 ([17]; Homo sapiens, UO-31): 7.47 µM
inhibition at 10 µM ([17]; Homo sapiens, UO-31, read-out: growth inhibition % (GI%)): < 15%
CC50 ([17]; Homo sapiens, UO-31, 5 doses, read-out: LC50 (the source's name)): 47.1 µM
TGI ([17]; UO-31, 5 doses): 21.1 µM
TGI ([18]; HT29, 5 doses): 11.1 µM
GI50 ([18]; Homo sapiens, HT-29): 2.14 µM
inhibition at 10 µM ([18]; Homo sapiens, HT-29, read-out: growth inhibition % (GI%)): 98.2%
LC50 (concentration giving 50% net cell kill) ([18]; Homo sapiens, HT-29, HT29, 5 doses): > 100 µM
GI50 ([19]; Homo sapiens, MOLT-4): 2.29 µM
inhibition at 10 µM ([19]; Homo sapiens, MOLT-4, read-out: growth inhibition % (GI%)): > 100%
CC50 ([19]; Homo sapiens, MOLT-4, 5 doses, read-out: LC50 (the source's name)): 44.7 µM
TGI ([19]; MOLT-4, 5 doses): 9.23 µM
GI50 ([20]; Homo sapiens, MDA-MB-435): 1.93 µM
inhibition at 10 µM ([20]; Homo sapiens, MDA-MB-435, read-out: growth inhibition % (GI%)): 75%
CC50 ([20]; Homo sapiens, MDA-MB-435, 5 doses, read-out: LC50 (the source's name)): 13 µM
TGI ([20]; MDA-MB-435, 5 doses): 4.56 µM
GI50 ([21]; Homo sapiens, SNB-75): 3.99 µM
inhibition at 10 µM ([21]; Homo sapiens, SNB-75, read-out: growth inhibition % (GI%)): 42.1%
CC50 ([21]; Homo sapiens, SNB-75, 5 doses, read-out: LC50 (the source's name)): > 100 µM
TGI ([21]; SNB-75, 5 doses): 29.2 µM
GI50 ([22]; Homo sapiens, OVCAR-3): 2.75 µM
CC50 ([22]; Homo sapiens, OVCAR-3, read-out: LC50): 38.9 µM
inhibition at 10 µM ([22]; Homo sapiens, OVCAR-3, read-out: growth inhibition % (GI%)): < 15%
TGI ([22]; OVCAR-3, 5 doses): 9.55 µM
GI50 ([23]; Homo sapiens, NCI-H522): 2.34 µM
inhibition at 10 µM ([23]; Homo sapiens, NCI-H522, read-out: growth inhibition % (GI%)): 79.3%
CC50 ([23]; Homo sapiens, NCI-H522, 5 doses, read-out: LC50 (the source's name)): 42.6 µM
TGI ([23]; NCI-H522, 5 doses): 8.31 µM
GI50 ([24]; SF-539): 2.54 µM
inhibition at 10 µM ([24]; SF-539, read-out: growth inhibition % (GI%)): 30.3%
